Measured values taken from PubChem BioAssay (NCI).
Several values for one entry are separate records, joined by “and”; a condition that tells them apart may be missing. Equal values may be shown once.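 A five-concentration, 48-hour dose response in 96-well plates underlies each endpoint, interpolated linearly between surrounding concentrations. Here, GI50 denotes the concentration required for 50% inhibition of growth. Definition used: TGI = concentration required for complete inhibition of growth.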

Assays:
Test in all cases: NCI-60 cell line screen, 48 h
[1] = system: SR leukemia
[2] = system: CCRF-CEM leukemia
[3] = system: K-562 leukemia
[4] = system: COLO 205 colon
[5] = system: UO-31 renal
[6] = system: U251 CNS
[7] = system: RXF-631 renal
[8] = system: DMS 114 small cell lung
[9] = system: LOX IMVI melanoma
[10] = system: HCT-116 colon
[11] = system: LXFL 529 NSCLC
[12] = system: SW-620 colon
[13] = system: OVCAR-5 ovarian
[14] = system: A549 NSCLC
[15] = system: SNB-78 CNS
[16] = system: HOP-18 NSCLC
[17] = system: HCT-15 colon
[18] = system: SK-OV-3 ovarian
[19] = system: OVCAR-8 ovarian
[20] = system: SK-MEL-28 melanoma
[21] = system: KM12 colon
[22] = system: EKVX NSCLC
[23] = system: M19-MEL melanoma
[24] = system: SF-539 CNS
[25] = system: HCC-2998 colon
[26] = system: XF 498 CNS
[27] = system: CAKI-1 renal
[28] = system: NCI-H226 lung
[29] = system: MALME-3M melanoma
[30] = system: SK-MEL-2 melanoma
[31] = system: HL-60(TB) leukemia
[32] = system: DMS 273 small cell lung
[33] = system: IGROV1 ovarian
[34] = system: TK-10 renal
[35] = system: SNB-75 CNS
[36] = system: SN12C renal
[37] = system: RPMI-8226 leukemia
[38] = system: KM20L2 colon
[39] = system: OVCAR-4 ovarian
[40] = system: SF-295 CNS
[41] = system: M14 melanoma
[42] = system: SNB-19 CNS
[43] = system: SF-268 CNS
[44] = system: ACHN renal
[45] = system: NCI-H460 lung
[46] = system: SK-MEL-5 melanoma
[47] = system: DLD-1 colon
[48] = system: UACC-257 melanoma
[49] = system: MOLT-4 leukemia
[50] = system: 786-0 renal
[51] = system: NCI-H522 lung
[52] = system: HT29 colon
[53] = system: UACC-62 melanoma
[54] = system: OVCAR-3 ovarian
[55] = system: RXF 393 renal
[56] = system: A498 renal
[57] = system: NCI-H23 lung
[58] = system: HOP-92 NSCLC
[59] = system: HOP-62 NSCLC

CNc1ccccc1-c1nc2ccccc2c(=O)o1
TGI [1]: > 100 µM | TGI [2]: > 100 µM | TGI [3]: > 100 µM | TGI [4]: > 100 µM | TGI [5]: > 100 µM | TGI [6]: > 100 µM | TGI [7]: > 100 µM | TGI [8]: > 100 µM | TGI [9]: > 100 µM | TGI [10]: > 100 µM | TGI [11]: > 100 µM | TGI [12]: > 100 µM | TGI [13]: > 100 µM | TGI [14]: > 100 µM | TGI [15]: > 100 µM | TGI [16]: > 100 µM | TGI [17]: > 100 µM | TGI [18]: > 100 µM | TGI [19]: > 100 µM | TGI [20]: > 100 µM | TGI [21]: > 100 µM | TGI [22]: > 100 µM | TGI [23]: > 100 µM | TGI [24]: > 100 µM | TGI [25]: > 100 µM | TGI [26]: > 100 µM | TGI [27]: > 100 µM | TGI [28]: > 100 µM | TGI [29]: > 100 µM | TGI [30]: > 100 µM | TGI [31]: > 100 µM | TGI [32]: > 100 µM | TGI [33]: > 100 µM | TGI [34]: > 100 µM | TGI [35]: 97.6 µM | TGI [36]: > 100 µM | TGI [37]: > 100 µM | TGI [38]: > 100 µM | TGI [39]: > 100 µM | TGI [40]: > 100 µM | TGI [41]: > 100 µM | TGI [42]: > 100 µM | TGI [43]: > 100 µM | TGI [44]: > 100 µM | TGI [45]: > 100 µM | TGI [46]: > 100 µM | TGI [47]: > 100 µM | TGI [48]: > 100 µM | TGI [49]: > 100 µM

COC1OC(COC(C)=O)C(OC(C)=O)C(OC(C)=O)C1NC(=O)N(CCCl)N=O (stereo unspecified)
GI50 [2]: 15.2 µM and 90.3 µM | TGI [2]: > 100 µM | TGI [3]: > 100 µM | TGI [4]: > 100 µM | TGI [7]: > 100 µM | TGI [50]: > 100 µM | TGI [8]: > 100 µM | TGI [9]: > 100 µM | TGI [10]: > 100 µM | TGI [51]: > 100 µM | TGI [11]: > 100 µM | TGI [12]: > 100 µM | TGI [52]: > 100 µM | TGI [13]: > 100 µM | TGI [14]: > 100 µM | TGI [15]: > 100 µM | TGI [16]: > 100 µM | TGI [18]: > 100 µM | TGI [19]: > 100 µM | TGI [53]: > 100 µM | TGI [20]: > 100 µM | TGI [21]: > 100 µM | TGI [22]: > 100 µM | TGI [23]: > 100 µM | GI50 [24]: > 100 µM and 24.7 µM | TGI [24]: > 100 µM and 91.7 µM | TGI [54]: > 100 µM | TGI [25]: > 100 µM | TGI [26]: > 100 µM | TGI [27]: > 100 µM | TGI [55]: > 100 µM | TGI [28]: > 100 µM | TGI [29]: > 100 µM | TGI [56]: > 100 µM | TGI [30]: > 100 µM | TGI [31]: 74 µM and > 100 µM | TGI [57]: > 100 µM | TGI [32]: > 100 µM | TGI [33]: > 100 µM | TGI [34]: > 100 µM | TGI [35]: > 100 µM | TGI [36]: > 100 µM | TGI [38]: > 100 µM | TGI [39]: > 100 µM | TGI [40]: > 100 µM | TGI [41]: > 100 µM | TGI [42]: > 100 µM | TGI [43]: > 100 µM | TGI [44]: > 100 µM | TGI [45]: > 100 µM | TGI [46]: > 100 µM | TGI [47]: > 100 µM | TGI [48]: > 100 µM | GI50 [49]: 26.2 µM and > 100 µM | TGI [49]: > 100 µM

Clc1cccc(Cl)c1C1SCc2nc3ccccc3n21 (stereo unspecified)
TGI [1]: > 100 µM | TGI [2]: > 100 µM | TGI [3]: > 100 µM | TGI [4]: > 100 µM | TGI [5]: > 100 µM | TGI [6]: > 100 µM | TGI [7]: 41.7 µM | TGI [50]: > 100 µM | TGI [8]: > 100 µM | TGI [9]: > 100 µM | TGI [10]: > 100 µM | TGI [51]: > 100 µM | TGI [11]: > 100 µM | TGI [12]: > 100 µM | TGI [52]: > 100 µM | TGI [13]: > 100 µM | TGI [14]: > 100 µM | TGI [15]: > 100 µM | TGI [16]: > 100 µM | TGI [17]: > 100 µM | TGI [58]: > 100 µM | TGI [18]: > 100 µM | TGI [19]: > 100 µM | TGI [53]: > 100 µM | TGI [21]: > 100 µM | TGI [22]: > 100 µM | TGI [23]: > 100 µM | TGI [24]: > 100 µM | TGI [54]: > 100 µM | TGI [25]: > 100 µM | TGI [59]: > 100 µM | TGI [26]: > 100 µM | TGI [27]: > 100 µM | TGI [55]: > 100 µM | TGI [28]: > 100 µM | TGI [29]: > 100 µM | TGI [56]: > 100 µM | TGI [31]: > 100 µM | TGI [57]: > 100 µM | TGI [32]: > 100 µM | TGI [33]: > 100 µM | TGI [34]: > 100 µM | TGI [35]: > 100 µM | TGI [36]: > 100 µM | TGI [37]: > 100 µM | TGI [38]: > 100 µM | TGI [39]: > 100 µM | TGI [40]: > 100 µM | TGI [41]: > 100 µM | TGI [42]: > 100 µM | TGI [43]: > 100 µM | TGI [44]: > 100 µM | TGI [45]: > 100 µM | TGI [46]: 67 µM | TGI [47]: > 100 µM | TGI [48]: > 100 µM | TGI [49]: > 100 µM
